Laboratory results published in patent US20140221468A1, “Compounds that Modulate Store Operated Calcium Channels” (The Board of Trustees of the Leland Stanford Junior …, priority 2010, published 2014).

What was measured:
jurkat T lymphocytes = assay: qRT PCR of T and B lymphocyte activating genes in jurkat T lymphocytes; type: cell-based, human
Protocol: The ability of AnCoA4 to inhibit activation of jurkat T lymphocytes was investigated (FIG. 4A). As IL2 gene production was previously investigated indirectly using a luciferase assay, the production of 83 more genes was monitored using real time quantitative PCR (qRT PCR). […] Jurkat T cells were treated with DMSO and AnCoA4 30 minutes before activation with PHA. Total RNA was extracted after 4 hours. […] Cells were pretreated with AnCoA4 30 minutes before activation with PHA or thapsigargin plus PMA for various time length of activation.
The ability of the AnCoA4 alone for independent up regulation of IL2 gene was also tested and no effects were observed.

SOC [1] = assay: Fura2-AM calcium imaging in HEK293 cells; type: cell-based; details: for effect on intracellular calcium levels, post SOC activation treatment: applied after ER store depletion, at minute 510 of imaging
Protocol: Calcium imaging was utilized for further characterization of the compounds and analogs. Using Fura2-AM, a known ratiometric calcium indicator, SOC dependent intracellular calcium rise and lack thereof was measured after treatment of our compounds (FIG. 3A-B). […] 1 minute before treatment of Thapsigargin.
This observation was in line with the previous luciferase assays and confirmed the ability of these compounds to inhibit SOC.
LaCl, a general blocker of divalent channels, was also used as a comparison for the post treatment experiment. […] HEK293 cells were treated with DMSO (black), LaCl at 1 uM (red), AnCoA4 at 50 uM (orange), and BiochaninA at 50 uM (green) at minute 510 of the calcium imaging. The intracellular calcium levels quickly drop after LaCl treatment whereas the compound treatment had no effect on the calcium levels.imaging.

SOC [2] = assay: NFAT coupled luciferase assay (NFAT-luc) for functional inhibition of SOC; type: cell-based; details: Jurkat T cells pretreated 30 minutes, activated by thapsigargin (TG) and PMA; read-out: EC50, NFAT-luc assay dose response
Protocol: To evaluate the ability of these compounds to inhibit SOC, a NFAT coupled luciferase assay was utilized as a functional secondary screen (FIG. 2A). This assay allows the monitoring of the IL2 promoter dependent production of luciferase that is directly activated by SOC through dephosphorylation of NFAT in T lymphocytes. This assay requires treatment of PMA, a PKC agonist, in parallel with SOC activation. Jurkat T cells were pretreated with each of the 51 compounds for 30 minutes and then activated by treatment of thapsigargin (TG) and PMA. TG depletes the ER stores by inhibiting the SERCA pumps that are responsible for refilling these stores with calcium. This process in turn activates SOC currents.
Fifty one compounds identified in the binding assay were tested by NFAT-luc assay to evaluated their SOC inhibitory properties (top). Renilla-luc was also monitored as an internal control of viability of the cells (bottom).
To further examine the hits produced from the secondary luciferase screen, four compounds AnCoA4, AnCoA5, AnCoG4, and AnCoF6 were selected (FIGS. 2B, C, D). The Dose response curve calculated from FIG. 2B is shown in FIG. 2C with a calculated EC50 equal to 0.9 μM.

[3] = 50 uM pretreatment for 30 minutes, then PHA activation, qRT PCR

Row | EC50 (SOC [2]) | Structure (SMILES) | CCL4 down regulation (jurkat T lymphocytes; [3]) | IL2 down regulation (jurkat T lymphocytes; [3]) | mRNA levels for most genes in comparison with the control sample (jurkat T lymphocytes; 84 genes, 50 uM pretreatment for 30 minutes, then PHA activation) | independent up regulation of IL2 gene by compound alone (jurkat T lymphocytes; compound alone, without activation) | SOC dependent intracellular calcium influx, pretreatment (SOC [1]; 50 uM, 1 minute before thapsigargin) | effect on intracellular calcium levels, post SOC activation treatment (SOC [1]; 50 uM) | effect on intracellular calcium levels, post SOC activation treatment (SOC [1]; 1 uM)
1 | 900 nM | COc1cc2c(cc1-c1coc3c4c(ccc3c1=O)OC(C)(C)C=C4)OCO2 [AnCoA4] | ~180 folds | about 6 folds | significantly lower | no effects | significantly reduced | no effect | –
2 | – | COc1ccc(-c2coc3cc(O)cc(O)c3c2=O)cc1 [BiochaninA] | – | – | – | – | – | no effect | –
3 | – | [Cl][La]([Cl])[Cl] [LaCl, reference compound] | – | – | – | – | – | – | quickly drop
